Measurements as given in patent US20250115598A1 (Anaxis Pharma Pty Ltd, priority 2021, published 2025).
pIC50, pKd: −log10 of the molar value.

Assays:
endogenous MLKL in U937 = endogenous MLKL in U937 (Homo sapiens (Human), UniProt Q8NB16); assay: Degradation assay: endogenous MLKL in U937 (western blot); conditions: U937, 24 h incubation, read-out: Degradation of endogenous MLKL in U937 (DC50 cell-based assay)
Summary of the method: (§1)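 MDF (seeded the day before) or U937 cells were treated 24 h at 37 °C, 10% CO2 with compound at 10, 2, 0.4, 0.08 and 0.016 μM final. Endogenous MLKL was quantified by western blot (anti-MLKL 3H1), normalized to GAPDH. Percent degradation was taken relative to DMSO control.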

[1] = test system: Immortalised Mouse Dermal Fibroblasts (MDFs); assay: Cellular assay: inhibition of TSI induced necroptosis, CellTitre-Glo viability; conditions: Mus musculus, Fibroblast; MDF, 3 hours TSI cocktail, Table 27; read-out: Inhibition of TSI-induced necroptosis (IC50 cell-based assay) in MDF
Summary of the method: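 Immortalised mouse dermal fibroblasts (2200 cells/well) pretreated 30 min with compound, 10-point 1:3 series from 36 μM, 0.3% DMSO. Then 3 h at 37° C. with TNF (100 ng/ml), Smac mimetic (500 nM) and IDN-6556 (10 μM). CellTiter-Glo luminescence normalised to DMSO (100%) and DMSO+TSI (0%); IC50 from 4-parameter logistic fit.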

human MLKL (full length) = human MLKL (full length) (Homo sapiens (Human), UniProt Q8NB16); assay: KINOMEscan binding assay, human MLKL (full length); conditions: hMLKL, Table 25; read-out: MLKL (KD)
Sequence of human MLKL (full length) (Q8NB16 whole entry): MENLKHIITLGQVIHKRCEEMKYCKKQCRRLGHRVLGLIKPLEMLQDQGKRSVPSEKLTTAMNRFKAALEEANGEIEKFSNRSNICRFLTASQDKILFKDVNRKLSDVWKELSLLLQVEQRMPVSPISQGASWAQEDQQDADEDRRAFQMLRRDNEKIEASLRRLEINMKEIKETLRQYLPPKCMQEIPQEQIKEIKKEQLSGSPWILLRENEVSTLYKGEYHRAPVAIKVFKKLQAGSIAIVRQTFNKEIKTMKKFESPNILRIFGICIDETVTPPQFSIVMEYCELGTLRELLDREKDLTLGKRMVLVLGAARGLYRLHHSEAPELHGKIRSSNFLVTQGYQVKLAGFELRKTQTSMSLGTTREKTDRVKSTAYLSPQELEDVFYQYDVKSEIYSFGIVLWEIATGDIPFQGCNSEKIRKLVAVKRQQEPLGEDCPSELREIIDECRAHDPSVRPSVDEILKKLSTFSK
Summary of the method: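 Binding constants were derived by fitting qPCR-quantified bead-retained kinase against compound concentration to the Hill equation, slope set at −1. Compound series were 3-fold over 11 points with 1% DMSO; most top concentrations were 30,000 nM. Kinases were T7-phage-tagged or HEK-293-produced with DNA tags.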

endogenous MLKL in MDF = endogenous MLKL in MDF (Mus musculus (Mouse), UniProt Q9D2Y4); assay: Degradation assay: endogenous MLKL in MDF (western blot); conditions: MDF cells, 24 h incubation with compound, MLKL adjusted for loading with GAPDH, normalized to DMSO only control, read-out: Degradation of endogenous MLKL in MDF (DC50 cell-based assay)
Sequence of endogenous MLKL in MDF (Q9D2Y4 whole entry): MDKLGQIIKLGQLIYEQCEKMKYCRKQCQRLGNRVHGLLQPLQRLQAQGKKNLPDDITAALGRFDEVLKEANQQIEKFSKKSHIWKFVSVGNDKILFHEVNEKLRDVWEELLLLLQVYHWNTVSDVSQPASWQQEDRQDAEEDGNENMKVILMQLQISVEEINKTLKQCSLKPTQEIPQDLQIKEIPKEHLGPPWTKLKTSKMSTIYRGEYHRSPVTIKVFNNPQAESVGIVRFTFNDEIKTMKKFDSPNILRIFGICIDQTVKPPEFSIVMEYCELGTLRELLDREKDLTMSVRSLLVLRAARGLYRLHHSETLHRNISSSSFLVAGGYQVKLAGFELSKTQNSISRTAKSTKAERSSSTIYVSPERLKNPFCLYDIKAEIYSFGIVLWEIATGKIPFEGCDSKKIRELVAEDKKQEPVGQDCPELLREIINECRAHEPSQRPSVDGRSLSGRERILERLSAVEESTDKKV
Summary of the method: as §1

Sequence of endogenous MLKL in U937 (Q8NB16 whole entry): as the sequence (Q8NB16 whole entry) above

SMILES: C[C@H](Oc1cc(-c2nn(C)c3c(-c4cnn(C5CCN(C(=O)COC6CCN(c7cccc8c7C(=O)N(C7CCC(=O)NC7=O)C8=O)CC6)CC5)c4)cnc(N)c23)ccc1NS(=O)(=O)C(F)F)c1ccc(F)cc1 (stereo partly drawn) [Compound 1072, N-{4-[4-amino-7-(1-{1-[2-({1-[2-(2,6-dioxopiperidin-3-yl)-1,3-dioxo-2,3-dihydro-1H-isoindol-4-yl]piperidin-4-yl}oxy)acetyl]piperidin-4-yl}-1H-pyrazol-4-yl)-1-methyl-1H-pyrazolo[4,3-c]pyridin-3-yl]-2-[(1S)-1-(4-fluorophenyl)ethoxy]phenyl}-1,1-difluoromethane-sulfonamide]
- DC50 (endogenous MLKL in U937): < 1000 nM
- pIC50 [1]: 5.00 to 6.00
- pKd (human MLKL (full length)): > 8.00
- DC50 (endogenous MLKL in MDF): < 1000 nM

SMILES: C[C@H](Oc1cc(-c2nn(C)c3c(-c4cnn(C5CCN(Cc6ccc(CNc7cccc8c7C(=O)N(C7CCC(=O)NC7=O)C8=O)cc6)CC5)c4)cnc(N)c23)ccc1NS(=O)(=O)C(F)F)c1ccc(F)cc1 (stereo partly drawn) [Compound 1115, N-(4-{4-amino-7-[1-(1-{[4-({[2-(2,6-dioxopiperidin-3-yl)-1,3-dioxo-2,3-dihydro-1H-isoindol-4-yl]amino}methyl)phenyl]methyl}piperidin-4-yl)-1H-pyrazol-4-yl]-1-methyl-1H-pyrazolo[4,3-c]pyridin-3-yl}-2-[(1S)-1-(4-fluorophenyl)ethoxy]phenyl)-1,1-difluoromethanesulfonamide]
- DC50 (endogenous MLKL in U937): < 1000 nM
- pIC50 [1]: > 6.00
- pKd (human MLKL (full length)): 6.00 to 8.00
- DC50 (endogenous MLKL in MDF): < 1000 nM

SMILES: C[C@H](Oc1cc(-c2nn(C)c3c(-c4cnn(C5CCN(C(=O)C6CCN(c7cccc8c7C(=O)N(C7CCC(=O)NC7=O)C8=O)CC6)CC5)c4)cnc(N)c23)ccc1NS(=O)(=O)C(F)F)c1ccc(F)cc1 (stereo partly drawn) [Compound 1044, N-(4-{4-amino-7-[1-(1-{1-[2-(2,6-dioxopiperidin-3-yl)-1,3-dioxo-2,3-dihydro-1H-isoindol-4-yl]piperidine-4-carbonyl}piperidin-4-yl)-1H-pyrazol-4-yl]-1-methyl-1H-pyrazolo [4,3-c]pyridin-3-yl}-2-[(1S)-1-(4-fluorophenyl)ethoxy]phenyl)-1,1-difluoromethanesulfonamide]
- DC50 (endogenous MLKL in U937): < 1000 nM
- pIC50 [1]: > 6.00
- pKd (human MLKL (full length)): > 8.00
- DC50 (endogenous MLKL in MDF): < 1000 nM

SMILES: C[C@H](Oc1cc(-c2nn(C)c3c(-c4cnn(C5CCN(C(=O)CC6CCN(c7cccc8c7C(=O)N(C7CCC(=O)NC7=O)C8=O)CC6)CC5)c4)cnc(N)c23)ccc1NS(=O)(=O)C(F)F)c1ccc(F)cc1 (stereo partly drawn) [Compound 1048, N-[4-(4-amino-7-{1-[1-(2-{1-[2-(2,6-dioxopiperidin-3-yl)-1,3-dioxo-2,3-dihydro-1H-isoindol-4-yl]piperidin-4-yl}acetyl)piperidin-4-yl]-1H-pyrazol-4-yl}-1-methyl-1H-pyrazolo[4,3-c]pyridin-3-yl)-2-[(1S)-1-(4-fluorophenyl)ethoxy]phenyl]-1,1-difluoromethanesulfonamide]
- DC50 (endogenous MLKL in U937): 1000 to 10000 nM
- pIC50 [1]: > 6.00
- pKd (human MLKL (full length)): > 8.00
- DC50 (endogenous MLKL in MDF): < 1000 nM

SMILES: Cn1nc(-c2ccc(NS(=O)(=O)C(F)F)c(F)c2)c2c(N)ncc(-c3cnn(C4CCN(C(=O)N5CCN(c6cccc7c6C(=O)N(C6CCC(=O)NC6=O)C7=O)CC5)CC4)c3)c21 (stereo not drawn) [Compound 1131, N-(4-{4-amino-7-[1-(1-{4-[2-(2,6-dioxopiperidin-3-yl)-1,3-dioxo-2,3-dihydro-1H-isoindol-4-yl]piperazine-1-carbonyl}piperidin-4-yl)-1H-pyrazol-4-yl]-1-methyl-1H-pyrazolo[4,3-c]pyridin-3-yl}-2-fluorophenyl)-1,1-difluoromethanesulfonamide]
- DC50 (endogenous MLKL in U937): < 1000 nM
- pIC50 [1]: 5.00 to 6.00
- pKd (human MLKL (full length)): > 8.00
- DC50 (endogenous MLKL in MDF): < 1000 nM

SMILES: C[C@H](Oc1cc(-c2nn(C)c3c(-c4cnn(C5CCN(CCCN6CCN(C(=O)COc7ccc8c(c7)C(=O)N(C7CCC(=O)NC7=O)C8=O)CC6)CC5)c4)cnc(N)c23)ccc1NS(=O)(=O)C(F)F)c1ccc(F)cc1 (stereo partly drawn) [Compound 1091, N-(4-{4-amino-7-[1-(1-{3-[4-(2-{[2-(2,6-dioxopiperidin-3-yl)-1,3-dioxo-2,3-dihydro-1H-isoindol-5-yl]oxy}acetyl)piperazin-1-yl]propyl}piperidin-4-yl)-1H-pyrazol-4-yl]-1-methyl-1H-pyrazolo[4,3-c]pyridin-3-yl}-2-[(1S)-1-(4-fluorophenyl)ethoxy]phenyl)-1,1-difluoromethanesulfonamide]
- DC50 (endogenous MLKL in U937): < 1000 nM
- pIC50 [1]: > 6.00
- pKd (human MLKL (full length)): > 8.00
- DC50 (endogenous MLKL in MDF): < 1000 nM

SMILES: C[C@H](Oc1cc(-c2nn(C)c3c(-c4cnn(C5CCN(C(=O)C6CCC(c7ccc8c(c7)C(=O)N(C7CCC(=O)NC7=O)C8=O)CC6)CC5)c4)cnc(N)c23)ccc1NS(=O)(=O)C(F)F)c1ccc(F)cc1 (stereo partly drawn) [Compound 1126, N-(4-{4-amino-7-[1-(1-{4-[2-(2,6-dioxopiperidin-3-yl)-1,3-dioxo-2,3-dihydro-1H-isoindol-5-yl]cyclohexanecarbonyl}piperidin-4-yl)-1H-pyrazol-4-yl]-1-methyl-1H-pyrazolo[4,3-c]pyridin-3-yl}-2-[(1S)-1-(4-fluorophenyl)ethoxy]phenyl)-1,1-difluoromethanesulfonamide]
- DC50 (endogenous MLKL in U937): < 1000 nM
- pIC50 [1]: > 6.00
- pKd (human MLKL (full length)): > 8.00
- DC50 (endogenous MLKL in MDF): < 1000 nM

SMILES: C[C@H](Oc1cc(-c2nn(C)c3c(-c4cnn(C5CCN(CCCC6CCN(c7cccc8c7C(=O)N(C7CCC(=O)NC7=O)C8=O)CC6)CC5)c4)cnc(N)c23)ccc1NS(=O)(=O)C(F)F)c1ccc(F)cc1 (stereo partly drawn) [Compound 1078, N-[4-(4-amino-7-{1-[1-(3-{1-[2-(2,6-dioxopiperidin-3-yl)-1,3-dioxo-2,3-dihydro-1H-isoindol-4-yl]piperidin-4-yl}propyl)piperidin-4-yl]-1H-pyrazol-4-yl}-1-methyl-1H-pyrazolo[4,3-c]pyridin-3-yl)-2-[(1S)-1-(4-fluorophenyl)ethoxy]phenyl]-1,1-difluoromethane-sulfonamide]
- DC50 (endogenous MLKL in U937): 1000 to 10000 nM
- pIC50 [1]: > 6.00
- pKd (human MLKL (full length)): > 8.00
- DC50 (endogenous MLKL in MDF): 1000 to 10000 nM

SMILES: C[C@H](Oc1cc(-c2nn(C)c3c(-c4cnn(C5CCN(C(=O)[C@H]6CC[C@H](Nc7cccc8c7C(=O)N(C7CCC(=O)NC7=O)C8=O)CC6)CC5)c4)cnc(N)c23)ccc1NS(=O)(=O)C(F)F)c1ccc(F)cc1 (stereo partly drawn) [Compound 1058, N-{4-[4-amino-1-methyl-7-(1-{1-[(trans)-4-{[2-(2,6-dioxopiperidin-3-yl)-1,3-dioxo-2,3-dihydro-1H-isoindol-4-yl]amino}cyclohexane-carbonyl]piperidin-4-yl}-1H-pyrazol-4-yl)-1H-pyrazolo[4,3-c]pyridin-3-yl]-2-[(1S)-1-(4-fluorophenyl)ethoxy]phenyl}-1,1-difluoromethanesulfonamide]
- DC50 (endogenous MLKL in U937): 1000 to 10000 nM
- pIC50 [1]: > 6.00
- pKd (human MLKL (full length)): 6.00 to 8.00
- DC50 (endogenous MLKL in MDF): < 1000 nM

SMILES: C[C@H](Oc1cc(-c2nn(C)c3c(C#CC(=O)N[C@H]4C[C@H](Nc5cccc6c5C(=O)N(C5CCC(=O)NC5=O)C6=O)C4)cnc(N)c23)ccc1NS(=O)(=O)C(F)F)c1ccc(F)cc1 (stereo partly drawn) [Compound 1109, 3-{4-amino-3-[4-(difluoromethanesulfonamido)-3-[(1S)-1-(4-fluorophenyl)ethoxy]phenyl]-1-methyl-1H-pyrazolo[4,3-c]pyridin-7-yl}-N-[(trans)-3-{[2-(2,6-dioxopiperidin-3-yl)-1,3-dioxo-2,3-dihydro-1H-isoindol-4-yl]amino}cyclobutyl]prop-2-ynamide]
- DC50 (endogenous MLKL in U937): < 1000 nM
- pIC50 [1]: 5.00 to 6.00
- pKd (human MLKL (full length)): > 8.00
- DC50 (endogenous MLKL in MDF): < 1000 nM

SMILES: Cn1nc(-c2ccc(NS(=O)(=O)C(F)F)c(F)c2)c2c(N)ncc(-c3cnn(C4CCN(Cc5cccc(CNc6cccc7c6C(=O)N(C6CCC(=O)NC6=O)C7=O)c5)CC4)c3)c21 (stereo not drawn) [Compound 1122, N-(4-{4-amino-7-[1-(1-{[3-({[2-(2,6-dioxopiperidin-3-yl)-1,3-dioxo-2,3-dihydro-1H-isoindol-4-yl]amino}methyl)phenyl]methyl}piperidin-4-yl)-1H-pyrazol-4-yl]-1-methyl-1H-pyrazolo[4,3-c]pyridin-3-yl}-2-fluorophenyl)-1,1-difluoromethanesulfonamide]
- DC50 (endogenous MLKL in U937): < 1000 nM
- pIC50 [1]: 5.00 to 6.00
- pKd (human MLKL (full length)): > 8.00
- DC50 (endogenous MLKL in MDF): 1000 to 10000 nM

SMILES: C[C@H](Oc1cc(-c2nn(C)c3c(-c4cnn(C5CCN(CC6CCN(c7cccc8c7C(=O)N(C7CCC(=O)NC7=O)C8=O)CC6)CC5)c4)cnc(N)c23)ccc1NS(=O)(=O)C(F)F)c1ccc(F)cc1 (stereo partly drawn) [Compound 1079, N-[4-(4-amino-7-{1-[1-({1-[2-(2,6-dioxopiperidin-3-yl)-1,3-dioxo-2,3-dihydro-1H-isoindol-4-yl]piperidin-4-yl}methyl)piperidin-4-yl]-1H-pyrazol-4-yl}-1-methyl-1H-pyrazolo[4,3-c]pyridin-3-yl)-2-[(1S)-1-(4-fluorophenyl)ethoxy]phenyl]-1,1-difluoromethane-sulfonamide]
- DC50 (endogenous MLKL in U937): < 1000 nM
- pIC50 [1]: > 6.00
- pKd (human MLKL (full length)): > 8.00
- DC50 (endogenous MLKL in MDF): < 1000 nM
